Source: EPA's ToxRefDB 2

Columns and labels:
[1] = tested on: rat; details: Prenatal developmental toxicity study; wistar; Oral; Gavage/Intubation; dose end: 21 GD; group: developmental; systemic / in life observation / body weight / fetal weight + developmental / developmental landmark / anogenital distance (agd) / …
[2] = tested on: mouse; details: Sub-acute repeat dose toxicity, b6c3f1, Oral, Gavage/Intubation, dose end: 14 day, group: systemic
[3] = tested on: mouse; details: Subchronic oral toxicity in rodents, b6c3f1, Gavage/Intubation, dose end: 13 week, group: systemic
[4] = tested on: rat; details: Subchronic oral toxicity in rodents, fischer, Gavage/Intubation, dose end: 13 week, group: systemic
[5] = tested on: mouse; details: Subchronic oral toxicity in rodents, b6c3f1, Gavage/Intubation, dose end: 17 week, group: systemic
[6] = tested on: mouse; details: Combined chronic toxicity/carcinogenicity; b6c3f1; Oral; Gavage/Intubation; dose end: 104 week; group: systemic; systemic / pathology microscopic / stomach / hyperkeratosis + systemic / pathology microscopic / stomach / hyperplasia + systemic / …
[7] = tested on: rat; details: Subchronic inhalation toxicity, other, Whole-Body, dose end: 13 week, group: systemic
[8] = tested on: rat; details: Combined chronic toxicity/carcinogenicity, fischer, Oral, Gavage/Intubation, dose end: 104 week, group: systemic
[9] = tested on: rat; details: Subchronic oral toxicity in rodents, sprague dawley, Gavage/Intubation, dose end: 90 day, group: systemic
[10] = tested on: mouse; details: Combined chronic toxicity/carcinogenicity, b6c3f1, Oral, Gavage/Intubation, dose end: 104 week, group: systemic
[11] = tested on: rat; details: Multigenerational reproductive toxicity study, other, Inhalation, Whole-Body, dose end: 1 generation
[12] = tested on: rat; details: Combined chronic toxicity/carcinogenicity; fischer; Oral; Gavage/Intubation; dose end: 104 week; group: systemic; systemic / pathology microscopic / stomach / hyperplasia + systemic / pathology microscopic / clitoral gland / hyperplasia + systemic / …
[13] = tested on: rat; details: Subchronic inhalation toxicity, other, Whole-Body, dose end: 13 week, group: systemic; remark: listed apart in the source
[14] = tested on: rat; details: Sub-acute repeat dose toxicity, other, Inhalation, Whole-Body, dose end: 4 week, group: systemic
[15] = tested on: rat; details: Subchronic oral toxicity in rodents, sprague dawley, Water, dose end: 90 day, group: systemic
[16] = tested on: rat; details: Sub-acute repeat dose toxicity, sprague dawley, Oral, Gavage/Intubation, dose end: 10 day, group: systemic
[17] = tested on: mouse; details: Multigenerational reproductive toxicity study, cd1, Oral, Gavage/Intubation, dose end: 2 generation
[18] = tested on: rat; details: Subchronic oral toxicity in rodents, fischer, Gavage/Intubation, dose end: 17 week, group: systemic
[19] = tested on: rat; details: Developmental neurotoxicity study; long evans; Injection; Intraperitoneal; dose end: 21 PND; group: cannot be grouped; systemic / in life observation / body weight / offspring (pup) weight
[20] = tested on: rat; details: Developmental neurotoxicity study, long evans, Injection, Intraperitoneal, dose end: 66 PND, group: cannot be grouped
[21] = tested on: rat; details: Developmental neurotoxicity study; long evans; Injection; Intraperitoneal; dose end: 18 PND; group: cannot be grouped; systemic / pathology gross / brain / reduced size + systemic / pathology microscopic / brain / depletion cellular
[22] = tested on: rat; details: Developmental neurotoxicity study, long evans, Injection, Intraperitoneal, dose end: 122 PND, group: cannot be grouped
[23] = systemic / organ weight / stomach / nos + systemic / pathology microscopic / stomach / hyperplasia + systemic / pathology microscopic / …
[24] = systemic / pathology microscopic / stomach / hyperplasia
[25] = systemic / pathology microscopic / stomach / hyperplasia + systemic / organ weight / stomach / absolute + systemic / organ weight / stomach…
[26] = systemic / pathology microscopic / lung / regeneration + systemic / pathology microscopic / stomach / acanthosis + systemic / pathology …
[27] = systemic / hematology / platelet / platelet + systemic / in life observation / clinical signs / lacrimation
[28] = systemic / in life observation / clinical signs / lacrimation
[29] = systemic / pathology microscopic / clitoral gland / adenoma + systemic / pathology microscopic / clitoral gland / adenoma/carcinoma combined…
[30] = systemic / pathology microscopic / stomach / squamous cell papilloma + systemic / pathology microscopic / pancreas / hyperplasia + systemic…
[31] = systemic / pathology microscopic / heart / inflammation + systemic / pathology microscopic / heart / necrosis
[32] = systemic / pathology microscopic / heart / inflammation + systemic / pathology microscopic / heart / necrosis + systemic / clinical …
[33] = systemic / pathology microscopic / harderian gland / adenoma + systemic / pathology microscopic / liver / hepatocellular adenoma + systemic…
[34] = systemic / pathology microscopic / stomach / squamous cell carcinoma + systemic / pathology microscopic / stomach / squamous cell papilloma…
[35] = group: parental, systemic / in life observation / body weight / body weight + systemic / in life observation / body weight / body weight gain
[36] = group: reproductive, reproductive / reproductive performance / mating / mating
[37] = systemic / hematology / leukocyte (wbc) count differential / leukocyte (wbc) + systemic / in life observation / body weight / body weight + …
[38] = systemic / pathology microscopic / lung / hyperplasia + systemic / pathology microscopic / spleen / hematopoietic cell proliferation + …
[39] = systemic / in life observation / body weight / body weight + systemic / in life observation / body weight / body weight gain + systemic / in…
[40] = systemic / in life observation / body weight / body weight gain + systemic / organ weight / liver / absolute + systemic / organ weight / …
[41] = systemic / clinical chemistry / aminopyrine-n-demethylase / aminopyrine-n-demethylase + systemic / clinical chemistry / cholesterol / …
[42] = systemic / clinical chemistry / urea nitrogen / urea nitrogen + systemic / organ weight / kidney / relative to body weight
[43] = systemic / clinical chemistry / urea nitrogen / urea nitrogen + systemic / organ weight / kidney / relative to body weight + systemic / …
[44] = group: offspring, systemic / in life observation / body weight / offspring (pup) weight + systemic / in life observation / water consumption / water …
[45] = group: offspring, systemic / organ weight / kidney / relative to body weight + systemic / organ weight / liver / relative to body weight
[46] = group: parental, systemic / in life observation / body weight / body weight + systemic / in life observation / water consumption / water consumption + …
[47] = group: reproductive, reproductive / reproductive performance / estrous cycle / length
[48] = group: reproductive, reproductive / reproductive performance / fertility / fertility + reproductive / reproductive performance / gestational length / gestational…
[49] = systemic / clinical chemistry / [other] / [other] + systemic / hematology / erythrocyte (rbc) count differential / erythrocyte (rbc) + …
[50] = systemic / clinical chemistry / [other] / [other] + systemic / clinical chemistry / protein / protein + systemic / in life observation / …
[51] = systemic / clinical chemistry / [other] / [other] + systemic / clinical chemistry / protein / protein + systemic / organ weight / brain / …
[52] = systemic / in life observation / body weight / offspring (pup) weight + systemic / in life observation / clinical signs / [other] + systemic…
[53] = systemic / organ weight / brain / nos

## CC(C)COC(=O)c1ccccc1C(=O)OCC(C)C [Diisobutyl phthalate]
[1]
  LEL: 600 mg/kg/day
  LOAEL: > 600 mg/kg/day
  NEL: < 600 mg/kg/day
  NOAEL: ≥ 600 mg/kg/day

## CC(C)(C)OOC(=O)c1ccccc1 [tert-Butyl perbenzoate]
[2]; [23]
  LOAEL: > 1110 mg/kg/day
  NEL: 140 mg/kg/day
  NOAEL: ≥ 1110 mg/kg/day
[2]; systemic / pathology microscopic / stomach / hyperplasia + systemic / organ weight / stomach / nos
  LEL: 278 mg/kg/day
[3]; [24]
  LEL: 60 mg/kg/day
  LOAEL: 60 mg/kg/day
[3]; [25]
  NEL: 30 mg/kg/day
  NOAEL: 30 mg/kg/day
[4]; [24]
  LEL: 30 mg/kg/day
  NEL: < 30 mg/kg/day
[4]; systemic / pathology microscopic / stomach / hyperplasia + systemic / pathology microscopic / stomach / inflammation
  LOAEL: 250 mg/kg/day
[4]; systemic / pathology microscopic / stomach / hyperplasia + systemic / pathology microscopic / stomach / inflammation + systemic / in life …
  NOAEL: 125 mg/kg/day

## ClCC(Cl)CCl [1,2,3-Trichloropropane]
[5]; systemic / organ weight / liver / absolute
  LEL: 32 mg/kg/day
[5]; systemic / organ weight / liver / absolute + systemic / in life observation / body weight / body weight gain + systemic / in life …
  NEL: 16 mg/kg/day
[5]; [26]
  LOAEL: 63 mg/kg/day
  NOAEL: 32 mg/kg/day
[6]
  LEL: 6 mg/kg/day
  LOAEL: 6 mg/kg/day
  NEL: < 6 mg/kg/day
  NOAEL: < 6 mg/kg/day
[7]; [27]
  LOAEL: > 1.5 ppm
  NOAEL: ≥ 1.5 ppm
[7]; [28]
  LEL: 0.5 ppm
  NEL: < 0.5 ppm
[8]; [29]
  LOAEL: > 30 mg/kg/day
  NOAEL: ≥ 30 mg/kg/day
[8]; [30]
  LEL: 3 mg/kg/day
  NEL: < 3 mg/kg/day
[9]; [31]
  LEL: 0.00147 mg/kg/day
  NEL: < 0.00147 mg/kg/day
[9]; [32]
  LOAEL: > 0.059 mg/kg/day
  NOAEL: ≥ 0.059 mg/kg/day
[10]; [33]
  LOAEL: > 60 mg/kg/day
  NOAEL: ≥ 60 mg/kg/day
[10]; [34]
  LEL: 6 mg/kg/day
  NEL: < 6 mg/kg/day
[11]; [35]
  LEL: 15 ppm
  LOAEL: > 15 ppm
  NEL: 5 ppm
  NOAEL: ≥ 15 ppm
[11]; [36]
  LEL: 5 ppm
  LOAEL: > 15 ppm
  NEL: < 5 ppm
  NOAEL: ≥ 15 ppm
[12]
  LEL: 3 mg/kg/day
  LOAEL: 3 mg/kg/day
  NEL: < 3 mg/kg/day
  NOAEL: < 3 mg/kg/day
[13]; [37]
  LOAEL: > 50 ppm
  NOAEL: ≥ 50 ppm
[13]; [38]
  LEL: 5 ppm
  NEL: < 5 ppm
[14]; [39]
  LOAEL: > 900 ppm
  NOAEL: ≥ 900 ppm
[14]; [40]
  LEL: 100 ppm
  NEL: < 100 ppm
[15]; [41]
  LOAEL: > 50 mg/kg/day
  NEL: 0.5 mg/kg/day
  NOAEL: ≥ 50 mg/kg/day
[15]; systemic / in life observation / water consumption / water consumption + systemic / organ weight / kidney / relative to body weight + …
  LEL: 5 mg/kg/day
[16]; [42]
  LEL: 0.00147 mg/kg/day
  NEL: < 0.00147 mg/kg/day
[16]; [43]
  LOAEL: > 0.118 mg/kg/day
  NOAEL: ≥ 0.118 mg/kg/day
[17]; [44]
  LOAEL: > 120 mg/kg/day
  NOAEL: ≥ 120 mg/kg/day
[17]; [45]
  LEL: 30 mg/kg/day
  NEL: < 30 mg/kg/day
[17]; [46]
  LEL: 120 mg/kg/day
  LOAEL: > 120 mg/kg/day
  NEL: 60 mg/kg/day
  NOAEL: ≥ 120 mg/kg/day
[17]; [47]
  LEL: 30 mg/kg/day
  NEL: < 30 mg/kg/day
[17]; [48]
  LOAEL: > 120 mg/kg/day
  NOAEL: ≥ 120 mg/kg/day
[18]; [49]
  LEL: 8 mg/kg/day
  NEL: < 8 mg/kg/day
[18]; systemic / pathology microscopic / kidney / regeneration + systemic / clinical chemistry / [other] / [other] + systemic / clinical chemistry…
  NOAEL: 32 mg/kg/day
[18]; systemic / pathology microscopic / kidney / regeneration + systemic / organ weight / kidney / absolute + systemic / in life observation / …
  LOAEL: 63 mg/kg/day

## [CH3][Sn+]([CH3])[CH3].[OH-] [Trimethyltin hydroxide]
[19]
  LEL: 6 mg/kg/day
  LOAEL: > 6 mg/kg/day
  NEL: 5 mg/kg/day
  NOAEL: ≥ 6 mg/kg/day
[20]; [50]
  LOAEL: > 6 mg/kg/day
  NOAEL: ≥ 6 mg/kg/day
[20]; [51]
  LEL: 5 mg/kg/day
  NEL: < 5 mg/kg/day
[21]
  LEL: 6 mg/kg/day
  LOAEL: > 6 mg/kg/day
  NEL: < 6 mg/kg/day
  NOAEL: ≥ 6 mg/kg/day
[22]; [52]
  LOAEL: > 6 mg/kg/day
  NOAEL: ≥ 6 mg/kg/day
[22]; [53]
  LEL: 4 mg/kg/day
  NEL: < 4 mg/kg/day
